Legend:
Experiment in all cases: Phage-Mediated Detection of Staphylococcus aureus
Type in all cases: cell-based
[1] = tested on: Staphylococcus aureus strain AR0461 (MRSA, CDC Panel)
Protocol: (§1) Samples of methicillin-resistant S. aureus (MRSA) were primed by adding 135 μl of samples containing S. aureus to rich media. The rich media included sub-inhibitory antibiotic (cefoxitin) to allow for specific enrichment and induction of MRSA. Samples were incubated in rich media for 1-2 hours. Following the priming of the samples, additional cefoxitin was added to the media and samples were incubated for an additional 2 hours. Staphylococcus aureus-specific bacteriophage NanoLuc Indicator phage was added to the samples and incubated for 2 hours. Lysis buffer and NANO-GLO® reagent were added. Following 5 minutes of incubation, measurements of bioluminescence were taken using a GLOMAX® 96 instrument. A signal/background ratio ≥750 RLU indicated positive detection of S. aureus. A signal/background ratio of <750 RLU indicated the sample was negative for S. aureus.

[2] = tested on: Staphylococcus aureus strain AR0465 (MRSA, CDC Panel)
Protocol: as §1

[3] = tested on: Staphylococcus aureus strain AR0467 (MRSA, CDC Panel)
Protocol: as §1

[4] = tested on: Staphylococcus aureus strain AR0469 (MRSA, CDC Panel)
Protocol: as §1

[5] = tested on: Staphylococcus aureus strain AR0470 (MRSA, CDC Panel)
Protocol: as §1

[6] = tested on: Staphylococcus aureus strain AR0473 (MRSA, CDC Panel)
Protocol: as §1

[7] = tested on: Staphylococcus aureus strain AR0477 (MRSA, CDC Panel)
Protocol: as §1

[8] = tested on: Staphylococcus aureus strain AR0479 (MRSA, CDC Panel)
Protocol: as §1

[9] = tested on: Staphylococcus aureus strain AR0482 (MRSA, CDC Panel)
Protocol: as §1

[10] = tested on: Staphylococcus aureus strain AR0484 (MSSA, CDC Panel)
Protocol: as §1

[11] = tested on: Staphylococcus aureus strain AR0486 (MSSA, CDC Panel)
Protocol: as §1

[12] = tested on: Staphylococcus aureus strain BAA-1720 (MRSA, ATCC); settings: detected CFU 16, cefoxitin 1.8 ug/mL
Protocol: as §1

[13] = tested on: Staphylococcus aureus strain BAA-2313 (MRSA, ATCC)
Protocol: as §1

For `CO[C@@]1(NC(=O)Cc2cccs2)C(=O)N2C(C(=O)O)=C(COC(N)=O)CS[C@@H]21` [Cefoxitin, cefoxitin], the “Cefoxitin Concentration 1 ug/mL (indicator phage luminescence signal)” value (shortened to “Cefoxitin Concentration 1 ug/mL”) ([1]; detected CFU 25, cefoxitin 1 ug/mL) was 3460 RLU, the “Cefoxitin Concentration 2 ug/mL (indicator phage luminescence signal)” value (from here on “Cefoxitin Concentration 2 ug/mL”) ([1]; detected CFU 25, cefoxitin 2 ug/mL) was 1846 RLU and the “Cefoxitin Concentration 4 ug/mL (indicator phage luminescence signal)” value (“Cefoxitin Concentration 4 ug/mL” below) ([1]; detected CFU 25, cefoxitin 4 ug/mL) was 910 RLU. The “Cefoxitin Concentration 1 ug/mL” value ([2]; detected CFU 101, cefoxitin 1 ug/mL) was 8263 RLU, the “Cefoxitin Concentration 2 ug/mL” value ([2]; detected CFU 101, cefoxitin 2 ug/mL) was 4086 RLU and the “Cefoxitin Concentration 4 ug/mL” value ([2]; detected CFU 101, cefoxitin 4 ug/mL) was 3006 RLU. The “Cefoxitin Concentration 1 ug/mL” value ([3]; detected CFU 171, cefoxitin 1 ug/mL) was 9908 RLU, the “Cefoxitin Concentration 2 ug/mL” value ([3]; detected CFU 171, cefoxitin 2 ug/mL) was 6497 RLU and the “Cefoxitin Concentration 4 ug/mL” value ([3]; detected CFU 171, cefoxitin 4 ug/mL) was 4401 RLU. For the same compound, the “Cefoxitin Concentration 1 ug/mL” value ([4]; detected CFU 523, cefoxitin 1 ug/mL) was 35110 RLU, the “Cefoxitin Concentration 2 ug/mL” value ([4]; detected CFU 523, cefoxitin 2 ug/mL) was 22030 RLU and the “Cefoxitin Concentration 4 ug/mL” value ([4]; detected CFU 523, cefoxitin 4 ug/mL) was 9007 RLU. For the same compound, the “Cefoxitin Concentration 1 ug/mL” value ([5]; detected CFU 215, cefoxitin 1 ug/mL) was 3502 RLU, the “Cefoxitin Concentration 2 ug/mL” value ([5]; detected CFU 215, cefoxitin 2 ug/mL) was 1846 RLU and the “Cefoxitin Concentration 4 ug/mL” value ([5]; detected CFU 215, cefoxitin 4 ug/mL) was 179 RLU. For the same compound, the “Cefoxitin Concentration 1 ug/mL” value ([6]; detected CFU 219, cefoxitin 1 ug/mL) was 60000 RLU, the “Cefoxitin Concentration 2 ug/mL” value ([6]; detected CFU 219, cefoxitin 2 ug/mL) was 17500 RLU and the “Cefoxitin Concentration 4 ug/mL” value ([6]; detected CFU 219, cefoxitin 4 ug/mL) was 338 RLU. The “Cefoxitin Concentration 1 ug/mL” value ([7]; detected CFU 471, cefoxitin 1 ug/mL) was 478000 RLU, the “Cefoxitin Concentration 2 ug/mL” value ([7]; detected CFU 471, cefoxitin 2 ug/mL) was 95970 RLU and the “Cefoxitin Concentration 4 ug/mL” value ([7]; detected CFU 471, cefoxitin 4 ug/mL) was 4068 RLU. For the same compound, the “Cefoxitin Concentration 1 ug/mL” value ([8]; detected CFU 52, cefoxitin 1 ug/mL) was 51560 RLU, the “Cefoxitin Concentration 2 ug/mL” value ([8]; detected CFU 52, cefoxitin 2 ug/mL) was 34730 RLU and the “Cefoxitin Concentration 4 ug/mL” value ([8]; detected CFU 52, cefoxitin 4 ug/mL) was 6803 RLU. The “Cefoxitin Concentration 1 ug/mL” value ([9]; detected CFU 75, cefoxitin 1 ug/mL) was 6741 RLU, the “Cefoxitin Concentration 2 ug/mL” value ([9]; detected CFU 75, cefoxitin 2 ug/mL) was 2477 RLU and the “Cefoxitin Concentration 4 ug/mL” value ([9]; detected CFU 75, cefoxitin 4 ug/mL) was 204 RLU. The “Cefoxitin Concentration 1 ug/mL” value ([10]; detected CFU 525, cefoxitin 1 ug/mL) was 8875 RLU, the “Cefoxitin Concentration 2 ug/mL” value ([10]; detected CFU 525, cefoxitin 2 ug/mL) was 172 RLU and the “Cefoxitin Concentration 4 ug/mL” value ([10]; detected CFU 525, cefoxitin 4 ug/mL) was 182 RLU. For the same compound, the “Cefoxitin Concentration 1 ug/mL” value ([11]; detected CFU 220, cefoxitin 1 ug/mL) was 9217 RLU, the “Cefoxitin Concentration 4 ug/mL” value ([11]; detected CFU 220, cefoxitin 4 ug/mL) was 252 RLU and the “Cefoxitin Concentration 1.8 ug/mL (indicator phage luminescence signal)” value [12] was 4034 RLU. For the same compound, the “Cefoxitin Concentration 1 ug/mL” value ([13]; detected CFU 192, cefoxitin 1 ug/mL) was 363300 RLU, the “Cefoxitin Concentration 2 ug/mL” value ([13]; detected CFU 192, cefoxitin 2 ug/mL) was 52440 RLU and the “Cefoxitin Concentration 4 ug/mL” value ([13]; detected CFU 192, cefoxitin 4 ug/mL) was 2409 RLU.
